From patent US9302999B2, “Substituted triazoles as herbicides” (E. I. DU PONT DE NEMOURS AND COMPANY, priority 2012, dated 2016)

Experiments:
Assay type in all cases: in vivo
[1] = tested on: canarygrass (Phalaris minor); assay: Test D pre-/postemergence: canarygrass
Method in brief: (§1)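 Applied as a non-phytotoxic solvent formulation with surfactant, compounds were tested preemergence in silt loam and postemergence on seedlings 2 to 18 cm high in peat-vermiculite medium. Evaluation was visual, 0 meaning no effect and 100 complete control, at 14 to 21 days.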

[2] = tested on: mustard, wild (wild mustard, Sinapis arvensis); assay: Test D pre-/postemergence: mustard, wild
Source text: (§2) Seeds of plant species selected from bluegrass (annual bluegrass, Poa annua), blackgrass (Alopecurus myosuroides), canarygrass (Phalaris minor), chickweed (common chickweed, Stellaria media), galium (catchweed bedstraw, Galium aparine), bromegrass, downy (downy bromegrass, Bromus tectorum), field poppy (Papaver rhoeas), field violet (Viola arvensis), foxtail, green (green foxtail, Setaria viridis), deadnettle (henbit deadnettle, Lamium amplexicaule), ryegrass, Italian (Italian ryegrass, Lolium multiflorum), kochia (Kochia scoparia), lambsquarters (Chenopodium album), oilseed rape (Brassica napus), pigweed (Amaranthus retroflexus), Russian thistle (Salsola iberica), chamomile (scentless chamomile, Matricaria inodora), speedwell (bird's-eye speedwell, Veronica persica), barley, spring (spring barley, Hordeum vulgare), wheat, spring (spring wheat, Triticum aestivum), buckwheat, wild (wild buckwheat, Polygonum convolvulus), mustard, wild (wild mustard, Sinapis arvensis), oat, wild (wild oat, Avena fatua), radish, wild (wild radish, Raphanus raphanistrum), windgrass (Apera spica-venti), barley, winter (winter barley, Hordeum vulgare), and wheat, winter (winter wheat, Triticum aestivum) were planted into a silt loam soil and treated preemergence with test chemicals formulated in a non-phytotoxic solvent mixture which included a surfactant. At the same time, these same crop and weed species were planted in pots containing the planting medium comprising spaghnum peat moss, vermiculite, wetting agent and starter nutrients and treated with postemergence applications of the test chemicals formulated in the same manner. Plants ranged in height from 2 to 18 cm (1- to 4-leaf stage).
(§3) Treated plants and controls were maintained in a controlled growth environment for 14 to 21 days after which time all species were compared to controls and visually evaluated. Plant response ratings, summarized in Table D, are based on a scale of 0 to 100 where 0 is no effect and 100 is complete control. A dash (-) response means no test result.

[3] = tested on: goosegrass (Eleusine indica); assay: Test C pre-/postemergence: goosegrass
Method in brief: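 Visual injury scored 0–100 (100 = complete control) against untreated controls after 13–15 greenhouse days. Surfactant-containing solvent formulations applied either to soil after sowing (loam/sand) or over 1- to 4-leaf plants, 2–18 cm tall.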

[4] = tested on: field violet (Viola arvensis); assay: Test D pre-/postemergence: field violet
Source text: as §2, §3

[5] = tested on: bromegrass, downy (downy bromegrass, Bromus tectorum); assay: Test D pre-/postemergence: bromegrass, downy
Method in brief: as §1

[6] = tested on: speedwell (bird's-eye speedwell, Veronica persica); assay: Test D pre-/postemergence: speedwell
Method in brief: as §1

[7] = tested on: wheat, winter (winter wheat, Triticum aestivum); assay: Test D pre-/postemergence: wheat, winter
Source text: as §2, §3

[8] = Postemergence, 31 g ai/ha, scale 0 to 100 (0 no effect, 100 complete control)
[9] = Postemergence, 62 g ai/ha, scale 0 to 100 (0 no effect, 100 complete control)
[10] = Postemergence, 125 g ai/ha, scale 0 to 100, 0 no effect, 100 complete control
[11] = Postemergence, 8 g ai/ha, scale 0 to 100
[12] = Postemergence, 16 g ai/ha, scale 0 to 100
[13] = Preemergence, 31 g ai/ha, scale of 0 to 100, 0 is no effect, 100 is complete control
[14] = Preemergence, 62 g ai/ha, scale of 0 to 100, 0 is no effect, 100 is complete control
[15] = Preemergence, 125 g ai/ha, scale 0 to 100, 0 no effect, 100 complete control
[16] = Preemergence, 250 g ai/ha, scale 0 to 100, 0 no effect, 100 complete control
[17] = Preemergence, 16 g ai/ha, scale 0 to 100 (0 no effect, 100 complete control)
[18] = Preemergence, 31 g ai/ha, scale 0 to 100 (0 no effect, 100 complete control)
[19] = Preemergence, 62 g ai/ha, scale 0 to 100
[20] = Preemergence, 125 g ai/ha, scale 0 to 100

With `Cc1nn(-c2ccc(F)c(F)c2)nc1Oc1ccnc(C(F)(F)F)c1` [Compound 145] the “Plant response rating: Canarygrass” value [1, 8] was 35, the “Plant response rating: Canarygrass” value [1, 9] was 35 and the “Plant response rating: Canarygrass” value [1, 10] was 60. The “Plant response rating, Canarygrass” value [1, 11] was 20, the “Plant response rating, Canarygrass” value [1, 12] was 30 and the “Plant response rating: Mustard, Wild” value [2, 8] was 75. The “Plant response rating: Mustard, Wild” value [2, 9] was 90, the “Plant response rating: Mustard, Wild” value [2, 10] was 100 and the “Plant response rating, Mustard, Wild” value [2, 11] was 25. For the same compound, the “Plant response rating, Mustard, Wild” value [2, 12] was 70, the “Plant response rating, Goosegrass” value [3, 8] was 25 and the “Plant response rating, Goosegrass” value [3, 9] was 35. The “Plant response rating, Goosegrass” value [3, 10] was 70, the “Plant response rating, Goosegrass” value ([3]; Postemergence, 250 g ai/ha, scale 0 to 100) was 80 and the “Plant response rating, Goosegrass” value [3, 13] was 98. For the same compound, the “Plant response rating, Goosegrass” value [3, 14] was 100, the “Plant response rating, Goosegrass” value [3, 15] was 100 and the “Plant response rating, Goosegrass” value [3, 16] was 100. For the same compound, the “Plant response rating: Field Violet” value [4, 8] was 75, the “Plant response rating: Field Violet” value [4, 9] was 95 and the “Plant response rating: Field Violet” value [4, 10] was 95. The “Plant response rating, Field Violet” value [4, 11] was 70, the “Plant response rating, Field Violet” value [4, 12] was 80 and the “Plant response rating: Bromegrass, Downy” value [5, 8] was 5. The “Plant response rating: Bromegrass, Downy” value [5, 9] was 10, the “Plant response rating: Bromegrass, Downy” value [5, 10] was 10 and the “Plant response rating, Bromegrass, Downy” value [5, 11] was 5. The “Plant response rating, Bromegrass, Downy” value [5, 12] was 5, the “Plant response rating: Speedwell” value [6, 8] was 70 and the “Plant response rating: Speedwell” value [6, 9] was 85. The “Plant response rating: Speedwell” value [6, 10] was 100, the “Plant response rating, Speedwell” value [6, 11] was 50 and the “Plant response rating, Speedwell” value [6, 12] was 55. The “Plant response rating: Wheat, Winter” value [7, 8] was 10, the “Plant response rating: Wheat, Winter” value [7, 9] was 10 and the “Plant response rating: Wheat, Winter” value [7, 10] was 10. For the same compound, the “Plant response rating, Wheat, Winter” value [7, 11] was 5 and the “Plant response rating, Wheat, Winter” value [7, 12] was 5.

`Cc1nn(-c2ccc(F)c(C(F)(F)F)c2)nc1Oc1ccnc(C(F)(F)F)c1` [Compound 147] was tested, and the “Plant response rating: Canarygrass” value [1, 8] was 35, the “Plant response rating: Canarygrass” value [1, 9] was 55 and the “Plant response rating: Canarygrass” value [1, 10] was 80. The “Plant response rating, Canarygrass” value [1, 12] was 15, the “Plant response rating, Canarygrass” value [1, 17] was 5 and the “Plant response rating, Canarygrass” value [1, 18] was 35. For the same compound, the “Plant response rating, Canarygrass” value [1, 19] was 100, the “Plant response rating, Canarygrass” value [1, 20] was 100 and the “Plant response rating: Mustard, Wild” value [2, 8] was 100. For the same compound, the “Plant response rating: Mustard, Wild” value [2, 9] was 100, the “Plant response rating: Mustard, Wild” value [2, 10] was 100 and the “Plant response rating, Mustard, Wild” value [2, 12] was 95. The “Plant response rating, Mustard, Wild” value [2, 17] was 55, the “Plant response rating, Mustard, Wild” value [2, 18] was 60 and the “Plant response rating, Mustard, Wild” value [2, 19] was 100. The “Plant response rating, Mustard, Wild” value [2, 20] was 95, the “Plant response rating, Goosegrass” value [3, 13] was 98 and the “Plant response rating, Goosegrass” value [3, 14] was 100. For the same compound, the “Plant response rating, Goosegrass” value [3, 15] was 100, the “Plant response rating, Goosegrass” value [3, 16] was 100 and the “Plant response rating: Field Violet” value [4, 8] was 95. For the same compound, the “Plant response rating: Field Violet” value [4, 9] was 100, the “Plant response rating: Field Violet” value [4, 10] was 90 and the “Plant response rating, Field Violet” value [4, 12] was 95. The “Plant response rating, Field Violet” value [4, 17] was 75, the “Plant response rating, Field Violet” value [4, 18] was 100 and the “Plant response rating, Field Violet” value [4, 19] was 95. For the same compound, the “Plant response rating, Field Violet” value [4, 20] was 100, the “Plant response rating: Bromegrass, Downy” value [5, 8] was 5 and the “Plant response rating: Bromegrass, Downy” value [5, 9] was 15. For the same compound, the “Plant response rating: Bromegrass, Downy” value [5, 10] was 50, the “Plant response rating, Bromegrass, Downy” value [5, 12] was 5 and the “Plant response rating, Bromegrass, Downy” value [5, 17] was 0. The “Plant response rating, Bromegrass, Downy” value [5, 18] was 5, the “Plant response rating, Bromegrass, Downy” value [5, 19] was 10 and the “Plant response rating, Bromegrass, Downy” value [5, 20] was 15. For the same compound, the “Plant response rating, Speedwell” value [6, 17] was 10, the “Plant response rating, Speedwell” value [6, 18] was 20 and the “Plant response rating, Speedwell” value [6, 19] was 100. The “Plant response rating, Speedwell” value [6, 20] was 100, the “Plant response rating: Wheat, Winter” value [7, 8] was 15 and the “Plant response rating: Wheat, Winter” value [7, 9] was 15. For the same compound, the “Plant response rating: Wheat, Winter” value [7, 10] was 20, the “Plant response rating, Wheat, Winter” value [7, 12] was 10 and the “Plant response rating, Wheat, Winter” value [7, 17] was 0. For the same compound, the “Plant response rating, Wheat, Winter” value [7, 18] was 0, the “Plant response rating, Wheat, Winter” value [7, 19] was 0 and the “Plant response rating, Wheat, Winter” value [7, 20] was 5.
